Source: patent publication US10654816B2, “Compounds and compositions for treating conditions associated with NLRP activity” (NOVARTIS INFLAMMASOME RESEARCH, INC., priority 2017, dated 2020)

test system: IL-1β production in PMA-differentiated THP-1 cells; assay: IL-1β production in PMA-differentiated THP-1 cells stimulated with gramicidin (hTHP-1 assay, HTRF readout; Procedures 1-3); format: cell-based, human; details: Homo sapiens, THP-1, hTHP-1 assay containing 2% fetal bovine serum; average; class symbols; read-out: hTHP-1 IC50 (Average IC50 of compounds in hTHP-1 assay)
Method: The Following Protocol is Suitable for Testing the Activity of the Compounds Disclosed Herein. Procedure 1: IL-1B Production in PMA-Differentiated THP-1 Cells Stimulated with Gramicidin.
THP-1 cells were purchased from the American Type Culture Collection and sub-cultured according to instructions from the supplier. Cells were cultured in complete RPMI 1640 (containing 10% heat inactivated FBS, penicillin (100 units/ml) and streptomycin (100 μg/ml)), and maintained in log phase prior to experimental setup. Prior to the experiment, compounds were dissolved in dimethyl sulfoxide (DMSO) to generate a 30 mM stock. The compound stock was first pre-diluted in DMSO to 3, 0.34, 0.042 and 0.0083 mM intermediate concentrations and subsequently spotted using Echo550 liquid handler into an empty 384-well assay plate to achieve desired final concentration (e.g. 100, 33, 11, 3.7, 1.2, 0.41, 0.14, 0.046, 0.015, 0.0051, 0.0017 μM). DMSO was backfilled in the plate to achieve a final DMSO assay concentration of 0.37%. The plate was then sealed and stored at room temperature until required.
THP-1 cells were treated with PMA (Phorbol 12-myristate 13-acetate) (20 ng/ml) for 16-18 hours. On the day of the experiment the media was removed and adherent cells were detached with trypsin for 5 minutes. Cells were then harvested, washed with complete RPMI 1640, spun down, and resuspended in RPMI 1640 (containing 2% heat inactivated FBS, penicillin (100 units/ml) and streptomycin (100 μg/ml). The cells were plated in the 384-well assay plate containing the spotted compounds at a density of 50,000 cells/well (final assay volume 50 μl). Cells were incubated with compounds for 1 hour and then stimulated with gramicidin (5 μM) (Enzo) for 2 hours. Plates were then centrifuged at 340 g for 5 min. Cell free supernatant (40 μL) was collected using a 96-channel PlateMaster (Gilson) and the production of IL-1β was evaluated by HTRF (cisbio). The plates were incubated for 18 h at 4° C. and read using the preset HTRF program (donor emission at 620 nm, acceptor emission at 668 nm) of the SpectraMax i3x spectrophotometer (Molecular Devices, software SoftMax 6). A vehicle only control and a dose titration of CRID3 (100-0.0017 μM) were run concurrently with each experiment.
Procedure 2: IL-1β Production in PMA-Differentiated THP-1 Cells Stimulated with Gramicidin.
THP-1 cells were purchased from the American Type Culture Collection and sub-cultured according to instructions from the supplier. Prior to experiments, cells were cultured in complete RPMI 1640 (containing 10% heat inactivated FBS, penicillin (100 units/ml) and streptomycin (100 μg/ml)), and maintained in log phase prior to experimental setup. Prior to the experiment THP-1 were treated with PMA (Phorbol 12-myristate 13-acetate) (20 ng/ml) for 16-18 hours. Compounds were dissolved in dimethyl sulfoxide (DMSO) to generate a 30 mM stock.
On the day of the experiment the media was removed and adherent cells were detached with trypsin for 5 minutes. Cells were then harvested, washed with complete RPMI 1640, spun down, resuspended in RPMI 1640 (containing 2% heat inactivated FBS, penicillin (100 units/ml) and streptomycin (100 μg/ml). The cells were plated in a 384-well plate at a density of 50,000 cells/well (final assay volume 50 μl). Compounds were first dissolved in assay medium to obtain a 5× top concentration of 500 μM. 10 step dilutions (1:3) were then undertaken in assay medium containing 1.67% DMSO. 5× compound solutions were added to the culture medium to achieve desired final concentration (e.g. 100, 33, 11, 3.7, 1.2, 0.41, 0.14, 0.046, 0.015, 0.0051, 0.0017 μM). Final DMSO concentration was at 0.37%. Cells were incubated with compounds for 1 hour and then stimulated with gramicidin (5 μM) (Enzo) for 2 hours. Plates were then centrifuged at 340 g for 5 min. Cell free supernatant (40 μL) was collected using a 96-channel PlateMaster (Gilson) and the production of IL-1β was evaluated by HTRF (cisbio). […]

| Compound | IC50 |
| --- | --- |
| CC(=O)N(C)Cc1ccc(S(N)(=O)=NC(=O)Nc2c3c(cc4c2CCC4)CCC3)cc1 (single isomer, unassigned) [Example 366, (R) or (S)-N-(4-(N′-((1,2,3,5,6,7-hexahydro-s-indacen-4-yl)carbamoyl)sulfamid-imidoyl)benzyl)-N-methylacetamide] | 1 to 5 µM |
| CC(=O)N(C)Cc1cccc(S(N)(=O)=NC(=O)Nc2c3c(cc4c2CCC4)CCC3)c1 (single isomer, unassigned) [Example 368, (R) or (S)-N-(3-(N′-((1,2,3,5,6,7-hexahydro-s-indacen-4-yl)carbamoyl)sulfamid-imidoyl)benzyl)-N-methylacetamide] | 1 to 5 µM |
| CC(C)(O)c1ncc(S(N)(=O)=NC(=O)Nc2c3c(cc4c2C(O)CC4)CCC3)s1 (single isomer, unassigned) [Example 370, (R, R/S) or (S, R/S)-N′-((3-hydroxy-1,2,3,5,6,7-hexahydro-s-indacen-4-yl)carbamoyl)-2-(2-hydroxypropan-2-yl)thiazole-5-sulfonimidamide] | 0.2 to 1 µM |
| COC1CN(Cc2ccc(S(N)(=O)=NC(=O)Nc3c4c(cc5c3CCC5)CCC4)cc2)C1 (single isomer, unassigned) [Example 379, (R) or (S)-N′-((1,2,3,5,6,7-hexahydro-s-indacen-4-yl)carbamoyl)-4-((3-methoxyazetidin-1-yl)methyl)benzene-sulfonimidamide] | 1 to 5 µM |
| COCCN(C)Cc1ccc(S(N)(=O)=NC(=O)Nc2c3c(cc4c2CCC4)CCC3)cc1 (single isomer, unassigned) [Example 390, (R) or (S)-N′-((1,2,3,5,6,7-hexahydro-s-indacen-4-yl)carbamoyl)-4-(((2-methoxyethyl)(meth-yl)amino)methyl)benzene-sulfonimidamide] | 1 to 5 µM |
| Cn1ncc2cc(S(N)(=O)=NC(=O)Nc3c4c(cc5c3CCC5)CCC4)ccc21 (single isomer, unassigned) [Example 397, (R) or (S)-N′-((1,2,3,5,6,7-hexahydro-s-indacen-4-yl)carbamoyl)-1-methyl-1H-indazole-5-sulfonimidamide] | 1 to 5 µM |

More lines, now with the values ahead:

| IC50 | Compound |
| --- | --- |
| 1 to 5 µM | CN1CCc2cc(S(N)(=O)=NC(=O)Nc3c4c(cc5c3CCC5)CCC4)ccc2C1 (single isomer, unassigned) [Example 395, (R) or (S)-N′-((1,2,3,5,6,7-hexahydro-s-indacen-4-yl)carbamoyl)-2-methyl-1,2,3,4-tetrahydroisoquinoline-6-sulfonimidamide] |
| 1 to 5 µM | CC(C)c1ccc(S(N)(=O)=NC(=O)Nc2c3c(cc4c2CCC4)CCC3)cn1 (single isomer, unassigned) [Example 402, (S) or (R)-N′-((1,2,3,5,6,7-hexahydro-s-indacen-4-yl)carbamoyl)-6-isopropylpyridine-3-sulfonimidamide] |

same assay, conditions: Homo sapiens, THP-1, hTHP-1 assay containing 2% fetal bovine serum; average; given as bound; read-out: hTHP-1 IC50 (Average IC50 of compounds in hTHP-1 assay)

| Compound | IC50 |
| --- | --- |
| CC(=O)N(C)Cc1cccc(S(N)(=O)=NC(=O)Nc2c3c(cc4c2CCC4)CCC3)c1 (single isomer, unassigned) [Example 367, (S) or (R)-N-(3-(N′-((1,2,3,5,6,7-hexahydro-s-indacen-4-yl)carbamoyl)sulfamid-imidoyl)benzyl)-N-methylacetamide] | > 30 µM |
| COC1CN(Cc2ccc(S(N)(=O)=NC(=O)Nc3c4c(cc5c3CCC5)CCC4)cc2)C1 (single isomer, unassigned) [Example 380, (S) or (R)-N′-((1,2,3,5,6,7-hexahydro-s-indacen-4-yl)carbamoyl)-4-((3-methoxyazetidin-1-yl)methyl)benzene-sulfonimidamide] | > 30 µM |
| COCCN(C)Cc1ccc(S(N)(=O)=NC(=O)Nc2c3c(cc4c2CCC4)CCC3)cc1 (single isomer, unassigned) [Example 389, (S) or (R)-N′-((1,2,3,5,6,7-hexahydro-s-indacen-4-yl)carbamoyl)-4-(((2-methoxyethyl)(meth-yl)amino)methyl)benzene-sulfonimidamide] | > 30 µM |
| CN1CCc2cc(S(N)(=O)=NC(=O)Nc3c4c(cc5c3CCC5)CCC4)ccc2C1 (single isomer, unassigned) [Example 396, (S) or (R)-N′-((1,2,3,5,6,7-hexahydro-s-indacen-4-yl)carbamoyl)-2-methyl-1,2,3,4-tetrahydroisoquinoline-6-sulfonimidamide] | > 30 µM |
| Cn1ncc2cc(S(N)(=O)=NC(=O)Nc3c4c(cc5c3CCC5)CCC4)ccc21 (single isomer, unassigned) [Example 398, (S) or (R)-N′-((1,2,3,5,6,7-hexahydro-s-indacen-4-yl)carbamoyl)-1-methyl-1H-indazole-5-sulfonimidamide] | > 30 µM |
| CC(C)c1ccc(S(N)(=O)=NC(=O)Nc2c3c(cc4c2CCC4)CCC3)cn1 (single isomer, unassigned) [Example 401, (R) or (S)-N′-((1,2,3,5,6,7-hexahydro-s-indacen-4-yl)carbamoyl)-6-isopropylpyridine-3-sulfonimidamide] | > 30 µM |

Continued, values first:

| IC50 | Compound |
| --- | --- |
| > 30 µM | CC(=O)N(C)Cc1ccc(S(N)(=O)=NC(=O)Nc2c3c(cc4c2CCC4)CCC3)cc1 (single isomer, unassigned) [Example 365, (S) or (R)-N-(4-(N′-((1,2,3,5,6,7-hexahydro-s-indacen-4-yl)carbamoyl)sulfamid-imidoyl)benzyl)-N-methylacetamide] |
| > 30 µM | CC(C)(O)c1ncc(S(N)(=O)=NC(=O)Nc2c3c(cc4c2C(O)CC4)CCC3)s1 (single isomer, unassigned) [Example 369, (S, R/S) or (R, R/S)-N′-((3-hydroxy-1,2,3,5,6,7-hexahydro-s-indacen-4-yl)carbamoyl)-2-(2-hydroxypropan-2-yl)thiazole-5-sulfonimidamide] |
| > 30 µM | CNS(=O)(=NC(=O)Nc1c2c(cc3c1CCC3)CCC2)c1ccc(CN(C)C)cc1 (single isomer, unassigned) [Example 383, (R) or (S)-4-((dimethylamino)methyl)-N′-((1,2,3,5,6,7-hexahydro-s-indacen-4-yl)carbamoyl)-N-methylbenzene-sulfonimidamide] |

same assay, conditions: hTHP-1 assay containing 2% fetal bovine serum; average; class symbols; read-out: hTHP-1 IC50 (Average IC50 of compounds in hTHP-1 assay)

| Compound | IC50 |
| --- | --- |
| CC(C)(O)c1ncc(S(N)(=O)=NC(=O)Nc2c3c(cc4c2C(O)CC4)CCC3)s1 (single isomer, unassigned) [Example 391, (R, R) or (R, S) or (S, S) or (S, R)-N′-((3-hydroxy-1,2,3,5,6,7-hexahydro-s-indacen-4-yl)carbamoyl)-2-(2-hydroxypropan-2-yl)thiazole-5-sulfonimidamide] | 0.2 to 1 µM |
| CC(C)(O)c1ncc(S(N)(=O)=NC(=O)Nc2c3c(cc4c2C(O)CC4)CCC3)s1 (single isomer, unassigned) [Example 392, (R, S) or (R, R) or (S, R) or (S, S)-N′-((3-hydroxy- *1,2,3,5,6,7-hexahydro-s-indacen-4-yl)carbamoyl)-2-(2-hydroxypropan-2-yl)thiazole-5-sulfonimidamide] | 0.2 to 1 µM |

same assay, conditions: hTHP-1 assay containing 2% fetal bovine serum; average; given as bound; read-out: hTHP-1 IC50 (Average IC50 of compounds in hTHP-1 assay)

| Compound | IC50 |
| --- | --- |
| CNS(=O)(=NC(=O)Nc1c2c(cc3c1CCC3)CCC2)c1ccc(CN(C)C)cc1 (single isomer, unassigned) [Example 384, (S) or (R)-4-((dimethylamino)methyl)-N′-((1,2,3,5,6,7-hexahydro-s-indacen-4-yl)carbamoyl)-N-methylbenzene-sulfonimidamide] | > 30 µM |
